Consider eight compounds from paper PMC8595511 (Experimental eye research, 2021).

Assay [1] addresses T1, recombinant mouse retbindin (mRTBN, RTBDN) (Mus musculus, UniProt Q8QZY4).
T1 sequence (Q8QZY4 32-247): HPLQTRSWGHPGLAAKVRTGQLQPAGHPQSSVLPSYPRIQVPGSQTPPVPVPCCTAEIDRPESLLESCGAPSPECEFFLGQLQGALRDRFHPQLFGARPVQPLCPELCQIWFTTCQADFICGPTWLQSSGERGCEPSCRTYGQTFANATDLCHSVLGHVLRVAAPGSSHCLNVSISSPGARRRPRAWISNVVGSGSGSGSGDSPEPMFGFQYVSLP
Put plainly: bio-layer interferometry. It is filed as binding. As to conditions: PBS. For orientation: Biolayer interferometry detects binding as a change in optical thickness at a sensor tip.

For assay [2], the target named is Bovine Interphotoreceptor Retinoid Binding Protein (bIRBP) (Bos taurus, UniProt P12661). As to the kind of experiment: bio-layer interferometry. As to conditions: PBS; ligand predissolved in DMSO, 1-10 μM.
Bovine Interphotoreceptor Retinoid Binding Protein (bIRBP), sequence (P12661 23-1286): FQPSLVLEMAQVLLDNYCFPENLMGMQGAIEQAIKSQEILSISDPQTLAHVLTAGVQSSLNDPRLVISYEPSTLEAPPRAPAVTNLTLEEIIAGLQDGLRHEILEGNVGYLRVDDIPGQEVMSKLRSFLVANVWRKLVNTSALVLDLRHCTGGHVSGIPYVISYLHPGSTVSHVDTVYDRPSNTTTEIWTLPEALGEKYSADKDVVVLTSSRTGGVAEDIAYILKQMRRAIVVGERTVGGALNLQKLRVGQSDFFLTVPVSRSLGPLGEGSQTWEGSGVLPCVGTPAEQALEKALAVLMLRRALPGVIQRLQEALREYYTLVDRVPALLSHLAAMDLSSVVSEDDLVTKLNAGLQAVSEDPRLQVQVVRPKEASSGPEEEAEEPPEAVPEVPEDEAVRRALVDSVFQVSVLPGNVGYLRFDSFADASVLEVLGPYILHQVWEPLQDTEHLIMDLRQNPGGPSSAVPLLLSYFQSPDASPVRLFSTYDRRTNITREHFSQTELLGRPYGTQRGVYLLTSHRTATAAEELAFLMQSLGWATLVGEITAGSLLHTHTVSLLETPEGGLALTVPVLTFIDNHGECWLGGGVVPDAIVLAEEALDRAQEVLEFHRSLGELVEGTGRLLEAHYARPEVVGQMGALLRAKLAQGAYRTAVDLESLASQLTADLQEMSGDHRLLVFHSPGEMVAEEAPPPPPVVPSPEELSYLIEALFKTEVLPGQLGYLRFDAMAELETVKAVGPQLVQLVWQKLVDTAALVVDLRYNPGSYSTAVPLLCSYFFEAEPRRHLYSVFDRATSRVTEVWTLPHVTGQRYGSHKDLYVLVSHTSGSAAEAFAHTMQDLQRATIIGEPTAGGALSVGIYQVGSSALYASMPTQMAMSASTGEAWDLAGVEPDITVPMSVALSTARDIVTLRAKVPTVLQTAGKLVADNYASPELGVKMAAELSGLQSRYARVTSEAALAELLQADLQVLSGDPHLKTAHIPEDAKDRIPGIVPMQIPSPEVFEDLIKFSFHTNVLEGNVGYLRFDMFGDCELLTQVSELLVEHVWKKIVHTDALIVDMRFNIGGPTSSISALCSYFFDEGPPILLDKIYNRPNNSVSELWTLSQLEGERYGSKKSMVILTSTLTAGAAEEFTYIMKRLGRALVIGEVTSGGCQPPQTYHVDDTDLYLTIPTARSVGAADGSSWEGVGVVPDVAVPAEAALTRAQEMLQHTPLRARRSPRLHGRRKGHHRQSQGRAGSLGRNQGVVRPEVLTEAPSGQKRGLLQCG

Turning to `Cc1cc2nc3c(=O)[nH]c(=O)nc-3n(C[C@H](O)[C@H](O)[C@H](O)CO)c2cc1C` [riboflavin], the Dissociation constant result in assay [1] (1-100 μM) was “Dissociation constants for retinoids, flavins and fluorescein (as a control) on retbindin”.
Regarding `CC1=C(/C=C/C(C)=C/C=C/C(C)=C/C=O)C(C)(C)CCC1` [all trans retinal], the Dissociation constant result in assay [1] is “Dissociation constants for retinoids, flavins and fluorescein (as a control) on retbindin”.
As to `CC1=C(/C=C/C(C)=C/C=C\C(C)=C\C=O)C(C)(C)CCC1` [11-cis retinal], the Dissociation constant result is “the protein showed significant affinity for several retinoids, particularly for 11-cis retinal” in assay [1] (ligand predissolved in DMSO, 1-10 μM) and “very similar to the well characterized 11-cis retinal transport protein IRBP” in assay [2].
For the compound `CC1=C(/C=C/C(C)=C/C=C\C(C)=C\C(=O)O)C(C)(C)CCC1` [11-cis retinoic acid], in assay [1], the Dissociation constant result was “Dissociation constants for retinoids, flavins and fluorescein (as a control) on retbindin”.
Take `O=C1OC2(c3ccc(O)cc3Oc3cc(O)ccc32)c2ccccc21` [fluorescein, reference compound]: the Dissociation constant entry in assay [1] (1-100 μM) was “Dissociation constants for retinoids, flavins and fluorescein (as a control) on retbindin”.
Same read-out and setting: to `Cc1cc2nc3c(=O)[nH]c(=O)nc-3n(C[C@H](O)[C@H](O)[C@H](O)COP(=O)(O)O)c2cc1C` [FMN] belongs “Dissociation constants for retinoids, flavins and fluorescein (as a control) on retbindin”.
Consider `CC1=C(/C=C/C(C)=C\C=C\C(C)=C\C=O)C(C)(C)CCC1` [9-cis retinal], for which, in assay [1], the Dissociation constant entry is “Dissociation constants for retinoids, flavins and fluorescein (as a control) on retbindin”.
Still for that read-out and setting: in the case of `CC1=C(/C=C/C(C)=C\C=C\C(C)=C\C(=O)O)C(C)(C)CCC1` [9-cis retinoic acid] it was “Dissociation constants for retinoids, flavins and fluorescein (as a control) on retbindin”.
